Assay results taken from patent publication US20190175528A1, “INHIBITION OF BIOFILM ORGANISMS” (NovaBiotics Limited, priority 2009, published 2019).
Numbered stars: 1 amine (or outer) side, 2 acyl side, 3 side chain; on linkers, the order of the positions; unused ones are H or OH. Ends that are not written are not given here. Peptide text beside a SMILES is read from it. Cysteamide = C(CS[*:3])N[*:1]

Columns and labels:
S. epidermidis ATCC12228 [1] = assay type: cell-based, Staphylococcus epidermidis; settings: ATCC12228, 24 h
Procedure: (§1) The bacterial inoculum was established by the dilution method from actively-growing cultures in Mueller-Hinton broth, standardized with 0.5 McFarland turbidity standard as described in the CLSI method M26-A.
(§2) To determine the prevention of biofilm formation, both the bacterial inoculum and the antimicrobial agents were added simultaneously to the plates. The plates were incubated at 37° C. for 24 h and the optical density was read at 625 nm on a microtitre plate reader (BioTek Powerwave XS, Winooski, USA). The MIC was obtained as the lowest concentration of antimicrobial showing total inhibition of bacterial growth.

S. aureus ATCC25923 [2] = assay type: cell-based, Staphylococcus aureus; settings: ATCC25923, 24 h
Procedure: as §1, §2

[3] = system: S. aureus DSM 11729 (MRSA); experiment: microbe, parasite or virus in culture; assay type: cell-based, Staphylococcus aureus; settings: DSM 11729, 24 h; for MIC pH5.5, 320 mM NaCl, S. aureus 11729 / MIC pH5.5, S. aureus 11729: pH 5.5
Procedure: as §1
(§3) To determine the prevention of biofilm formation, both the bacterial inoculum and the antimicrobial agents were added simultaneously to the plates. The plates were incubated at 37° C. for 24 h and the optical density was read at 625 nm on a microtitre plate reader (BioTek Powerwave XS, Winooski, USA). The MIC was obtained as the lowest concentration of antimicrobial showing total inhibition of bacterial growth. […]
(§4) FIC=MICA[combination]/MICA[alone]+MICB[combination]/MICB[alone] […]
(§5) In order to assess for the prevention of biofilm formation by both Gram-positive and Gram-negative bacteria, the bacterial inoculum and antimicrobial agents were added simultaneously in the plates. The range of concentrations of antimicrobial agents was 0-500 μg/ml NP108 and 0-320 μg/ml cysteamine against the Gram-negative bacteria P. aeruginosa ATCC BAA-47 and 0-1000 μg/ml NP108 and 0-320 μg/ml cysteamine against the Gram-positive MRSA.

P. aeruginosa DSMZ1128 [4] = assay type: cell-based, Pseudomonas aeruginosa; settings: DSMZ1128, 24 h
Procedure: as §1, §2

P. aeruginosa DSMZ1299 [5] = assay type: cell-based, Pseudomonas aeruginosa; settings: for MIC at pH 7, P. aeruginosa D5MZ1299: DSMZ1299, 24 h
Procedure: as §1, §2

[6] = system: P. aeruginosa ATCC BAA-47; experiment: microbe, parasite or virus in culture; assay type: cell-based, Pseudomonas aeruginosa; settings: ATCC BAA-47, 24 h; for MIC pH5.5, 320 mM NaCl, P. aeruginosa ATCCBAA-47 / MIC pH5.5, P. aeruginosa ATCCBAA-47: pH 5.5
Procedure: as §1, §3, §4, §5

S. epidermidis ATCC12228 [7] = settings: ATCC12228, pH 7
S. aureus ATCC25923 [8] = settings: ATCC25923, pH 7
[9] = system: S. aureus DSM 11729 (MRSA); settings: for MBC at pH5.5, S. aureus 11729 / MBC pH5.5, 320 mM NaCl, S. aureus 11729: DSM 11729, pH 5.5; for MBC following MIC at pH 7, S. aureus DSMZ11729: DSM 11729, pH 7
P. aeruginosa DSMZ1128 [10] = settings: DSMZ1128, pH 7
P. aeruginosa DSMZ1299 [11] = settings: DSMZ1299, pH 7
[12] = system: P. aeruginosa ATCC BAA-47; settings: for MBC at pH5.5, P. aeruginosa ATCCBAA-47 / MBC pH5.5, 320 mM NaCl, P. aeruginosa ATCCBAA-47: ATCC BAA-47, pH 5.5; for MBC following MIC at pH 7, P. aeruginosa ATCCBAA-47: ATCC BAA-47, pH 7

| Compound | MIC at pH 7, S. epidermidis ATCC12228 (S. epidermidis ATCC12228 [1]) | MIC at pH 7, S. aureus ATCC25923 (S. aureus ATCC25923 [2]) | MIC pH5.5, 320 mM NaCl, S. aureus 11729 [3] | MIC pH5.5, S. aureus 11729 [3] | MIC at pH 7, S. aureus DSMZ11729 [3] | MIC at pH 7, P. aeruginosa DSMZ1128 (P. aeruginosa DSMZ1128 [4]) | MIC at pH 7, P. aeruginosa D5MZ1299 (P. aeruginosa DSMZ1299 [5]) | MIC pH5.5, 320 mM NaCl, P. aeruginosa ATCCBAA-47 [6] | MIC pH5.5, P. aeruginosa ATCCBAA-47 [6] | MIC at pH 7, P. aeruginosa ATCCBAA-47 [6] | MBC following MIC at pH 7, S. epidermidis ATCC12228 (S. epidermidis ATCC12228 [7]) | MBC following MIC at pH 7, S. aureus ATCC25923 (S. aureus ATCC25923 [8]) | MBC at pH5.5, S. aureus 11729 [9] | MBC pH5.5, 320 mM NaCl, S. aureus 11729 [9] | MBC following MIC at pH 7, S. aureus DSMZ11729 [9] | MBC following MIC at pH 7, P. aeruginosa DSMZ1128 (P. aeruginosa DSMZ1128 [10]) | MBC following MIC at pH 7, P. aeruginosa DSMZ1299 (P. aeruginosa DSMZ1299 [11]) | MBC at pH5.5, P. aeruginosa ATCCBAA-47 [12] | MBC pH5.5, 320 mM NaCl, P. aeruginosa ATCCBAA-47 [12] | MBC following MIC at pH 7, P. aeruginosa ATCCBAA-47 [12] | also measured |
| --- | --- | --- | --- | --- | --- | --- | --- | --- | --- | --- | --- | --- | --- | --- | --- | --- | --- | --- | --- | --- | --- |
| N=C(N)NCCC[C@H](NC(=O)[C@H](CCCCN)NC(=O)[C@@H]1CCCN1C(=O)[C@H](CCCNC(=N)N)NC(=O)[C@H](CCCNC(=N)N)NC(=O)[C@@H]1CCCN1C(=O)[C@H](CCCCN)NC(=O)[C@H](CCCNC(=N)N)NC(=O)[C@H](CCCNC(=N)N)NC(=O)[C@@H]1CCCN1C(=O)[C@H](Cc1c[nH]cn1)NC(=O)[C@@H](N)Cc1c[nH]cn1)C(=O)N[C@@H](Cc1c[nH]cn1)C(=O)N[C@@H](Cc1c[nH]cn1)C(=O)NCCS [NP451, HHPRRKPRRPKRHH-cysteamine] (H-HHPRRKPRRPKRHH-Cysteamide; N-terminus assumed) | 125 μg/ml | 500 μg/ml | >500 μg/ml | >500 μg/ml | 500 μg/ml | >500 μg/ml | >500 μg/ml | >500 μg/ml | >500 μg/ml | >500 μg/ml | 125 μg/ml | >500 μg/ml | >500 μg/ml | >500 μg/ml | >500 μg/ml | >500 μg/ml | >500 μg/ml | 250 μg/ml | >500 μg/ml | >500 μg/ml | Exp#3, P. aeruginosa DSMZ1299 (quantity not clearly headed) (P. aeruginosa DSMZ1299 [5]; Exp#3): >500 µg/mL |
| N=C(N)NCCC[C@H](NC(=O)[C@H](CCCCN)NC(=O)[C@@H]1CCCN1C(=O)[C@H](CCCNC(=N)N)NC(=O)[C@H](CCCNC(=N)N)NC(=O)[C@@H]1CCCN1C(=O)[C@H](CCCCN)NC(=O)[C@H](CCCNC(=N)N)NC(=O)[C@H](CCCNC(=N)N)NC(=O)[C@@H]1CCCN1C(=O)[C@H](CCCCN)NC(=O)[C@@H](N)CCCCN)C(=O)N[C@@H](CCCCN)C(=O)N[C@@H](CCCCN)C(=O)NCCS [NP449, KKPRRKPRRPKRKK-cysteamine] (H-KKPRRKPRRPKRKK-Cysteamide; N-terminus assumed) | 31.25 μg/ml | 250 μg/ml | >500 μg/ml | >500 μg/ml | 125 μg/ml | 250 μg/ml | 125 μg/ml | >500 μg/ml | >500 μg/ml | 250 μg/ml | 125 μg/ml | >500 μg/ml | >500 μg/ml | >500 μg/ml | 250 μg/ml | 500 (2) μg/ml | 250 (2) μg/ml | >500 μg/ml | >500 μg/ml | >500 μg/ml |  |
| RRRFRFFFRFRRR [NP432, RRRFRFFFRFRRR] | <7.8 μg/ml | 31.25 μg/ml | >500 μg/ml | >500 μg/ml | 62.5 μg/ml | 62.5 μg/ml | 15.6 μg/ml | 125 μg/ml | 125 μg/ml | 15.6 μg/ml | 16 μg/ml | 250 μg/ml | >500 μg/ml | >500 μg/ml | 500 μg/ml | 250 (2) μg/ml | 32 (2) μg/ml | 125 μg/ml | >500 μg/ml | 250 μg/ml |  |
